The source of these data is ChEMBL document CHEMBL1123725, “Effect of reductive alkylation of D-lysine in position 6 on the histamine-releasing activity of luteinizing hormone-releasing hormone antagonists” (1987).

The test has as its system rat peritoneal mast cells (Rattus norvegicus). Description: In vitro histamine-release activity by using peritoneal cells from male Sprague-Dawley rats in a standard assay.

Values after ≈ are worked out from the molar mass of the structure shown.

Regarding `CC(=O)NC(Cc1ccc2ccccc2c1)C(=O)NC(Cc1ccccc1)C(=O)NC(Cc1ccccc1)C(=O)N[C@@H](CO)C(=O)N[C@@H](Cc1ccc(O)cc1)C(=O)NC(Cc1c[nH]c2ccccc12)C(=O)NC(Cc1ccccc1)C(=O)N[C@@H](CC(C)C)C(=O)N1CCC[C@@H]1C(=O)NC(C)C(N)=O` (stereo in doubt), the ED50 came out at 46 µg/mL (≈ 32.5 µM).
